Data reported in PMC5770468, “Cardiac glycoside/aglycones inhibit HIV-1 gene expression by a mechanism requiring MEK1/2-ERK1/2 signaling” (Scientific Reports, 2018).

Legend:
HeLa rtTA-HIV-ΔMls cells = type: cell-based, human; details: XTT
Protocol: Drug/compounds were tested for effects on HIV-1 gene expression using inducible Tet-ON HIV-1 cell lines [HeLa rtTA-HIV-ΔMls or rtTA-HIV(Gag-GFP)] containing a HIV-1 (LAI) provirus activatable by Dox or tetracycline transactivator (tTA)[69]. The rtTA-HIV-ΔMls provirus was modified and used as previously reported[9]–[11],[70]. The rtTA-HIV(Gag-GFP) provirus was generated by deletion of the PR and RT coding regions within pol and insertion of GFP to the 3′ of gag, creating GFP fused to the C-terminal of Gag. After 4 h of drug/compound treatment, HIV-1 gene expression was activated with Dox (2 μg/mL) or tTA (described below). Equal concentrations of DMSO were present in each experiment. After ~20 h, cells and media were harvested to monitor the effects of drug/compound treatments as described below. HIV-1 gene expression was quantified via p24^CA ELISA or monitoring Gag-GFP fluorescence in cells as described below. In parallel, cell viability of treatments were assessed by XTT assay (Sigma-Aldrich, #TOX2). For confirmatory tests, the CD4^+ HIV-1 T-cell line, 24ST1NLESG, from J. Dougherty, was treated with drug/compounds and HIV-1 gene expression activated by 1.8 µM of phorbol 12-myristate 13-acetate (PMA) as previously described[10],[11],[71].
Supplementary Figure S2. CSs inhibit HIV-1 gene expression in a dose-dependent manner. […]

[1] = test system: nascent protein synthesis; type: cell-based, human; details: 220 nM
Protocol: To monitor HIV-1 gene expression or replication, Gag release into cell culture supernatants were assayed by ELISA using a p24^CA antigen capture assay kit (AIDS & Cancer Virus Program, NCI-Frederick, Frederick, MD USA). Media harvested from HIV clinical isolates were diluted ~10 fold (or as necessary) prior to performing this assay. For analysis of HIV-1 and SR protein expression (and phosphorylation states with calf intestinal alkaline phosphatase treatments), cells were lysed and analyzed by western blot as previously outlined. Phosphatase inhibitors (e.g. 10 mM sodium fluoride, 2 mM sodium orthovanadate) were added to solutions requiring phospho protein analyses. […] Activation of MAPKs was determined by western blot quantitation and calculation of phospho/total protein levels. […] Stain-Free™ gels were casted and proteins were detected as described in 10% TGX-Stain-Free FastCast Acrylamide Kit from Bio-Rad (#161-0183). […] In representative gel/blot sets, samples were electrophoresed from the same experiment as controls, resolved simultaneously on identically cast gel(s), transferred to same PVDF (by either wet electrophoretic or by Bio-Rad Trans-Blot® Turbo Transfer System), and detected at same time. […] Cells were subsequently washed, whole cell lysates prepared, and proteins quantified by western blot using an anti-puromycin antibody (EMD Millipore, #anti-12D10) as described above. […]

For `C[C@]12CC[C@H](O)C[C@H]1CC[C@@H]1[C@@H]2CC[C@]2(C)[C@@H](C3=CC(=O)OC3)CC[C@]12O` [Digitoxigenin], the toxicity (HeLa rtTA-HIV-ΔMls cells; at 1000 nM) was “no toxicity”.

With `COc1ccc(C[C@H]2NC[C@H](O)[C@H]2OC(C)=O)cc1` [anisomycin, Anisomycin] the “effect on nascent protein synthesis” value [1] was “little to no effect”.

With `C[C@]12CC[C@H](O)C[C@H]1CC[C@@H]1[C@@H]2C[C@@H](O)[C@]2(C)[C@@H](C3=CC(=O)OC3)CC[C@]12O` [Digoxigenin] the “CC20 (cytotoxic effects ≥20%)” value (HeLa rtTA-HIV-ΔMls cells) was 600 nM.
